Results on 5 compounds are retold here after PMC5385520 (Scientific Reports, 2017).

Experiment [1] deals with T1, hDDO (human D-aspartate oxidase) (Homo sapiens, UniProt Q99489).
T1 sequence (Q99489 1-341): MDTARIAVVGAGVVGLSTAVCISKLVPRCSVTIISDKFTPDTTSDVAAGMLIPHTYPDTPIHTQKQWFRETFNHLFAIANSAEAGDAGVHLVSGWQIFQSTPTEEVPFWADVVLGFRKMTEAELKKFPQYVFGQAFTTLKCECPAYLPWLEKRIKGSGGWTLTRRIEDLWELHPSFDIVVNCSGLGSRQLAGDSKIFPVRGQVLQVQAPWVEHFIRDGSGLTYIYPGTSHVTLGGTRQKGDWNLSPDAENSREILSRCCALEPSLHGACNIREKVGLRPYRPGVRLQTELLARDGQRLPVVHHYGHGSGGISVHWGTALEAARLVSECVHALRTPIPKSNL
As to the kind of experiment: coupled HRP / Amplex UltraRed fluorescence assay. On the set-up: gene DDO; recombinant. The class given is biochemical.

For experiment [2], the target named is T2, mDDO (mouse D-aspartate oxidase) (Mus musculus, UniProt Q922Z0).
T2 construct: gene Ddo; recombinant
T2 sequence (Q922Z0 1-341): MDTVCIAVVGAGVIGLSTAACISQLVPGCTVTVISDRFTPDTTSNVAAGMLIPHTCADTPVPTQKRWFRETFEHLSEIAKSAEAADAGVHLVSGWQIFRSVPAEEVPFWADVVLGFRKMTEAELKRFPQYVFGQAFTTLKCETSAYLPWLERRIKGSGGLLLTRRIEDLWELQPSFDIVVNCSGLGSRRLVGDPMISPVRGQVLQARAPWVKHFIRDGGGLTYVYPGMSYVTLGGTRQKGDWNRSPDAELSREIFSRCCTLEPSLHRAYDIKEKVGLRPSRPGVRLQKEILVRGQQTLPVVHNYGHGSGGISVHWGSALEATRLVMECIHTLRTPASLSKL
As to the kind of experiment: coupled HRP / Amplex UltraRed fluorescence assay. The class given is biochemical. To be noted: D-Asp 7.5 mM; FAD 4 and 100 μM; inactive up to 300 μM.

The target in experiment [3] is T1, hDDO (human D-aspartate oxidase). As to the kind of experiment: biochemical. On the set-up: gene DDO.
[4] abbreviates: read-out: Concentration (μM) / 1000.
[5] abbreviates: read-out: Concentration (μM) / 100.

The structures appear in SMILES notation. Where two headings read alike, the source gives them in different places.

On to `CC(NC(C)(C)C)C(=O)c1cccc(Cl)c1` (stereo not drawn) [bupropion], for which the activity at 1000 µM in experiment [1] (setting [4]) was determined as 89%.

For `CN(C)CCCN1c2ccccc2Sc2ccc(Cl)cc21` [chlorpromazine], in experiment [1] (setting [4]), the activity at 1000 µM is greater than 90%.

As to `CN1CCN(C2=Nc3cc(Cl)ccc3Nc3ccccc32)CC1` [clozapine], the “coupled HRP / Amplex UltraRed fluorescence assay” value in experiment [2] is “both mDDO and hDDO was unaffected by clozapine at all concentrations tested”. Further, in experiment [1] (setting [5]), the activity at 1000 µM was greater than 95%.

Regarding `O=C(CCCN1CCC(O)(c2ccc(Cl)cc2)CC1)c1ccc(F)cc1` [haloperidol], in experiment [1] (setting [5]), the activity at 1000 µM amounted to 100%.

Consider `Cc1cc2c(s1)Nc1ccccc1N=C2N1CCN(C)CC1` [olanzapine], for which it took 23.4 ± 1.6 µM to reach half-maximal inhibition in experiment [3] (IC50).

In general, IC50 refers to the concentration that inhibits the measured activity by half.
